Measurements reported in patent US8785457B2 (Cellzome Limited, priority 2009, dated 2014).
Where two headings read alike, the source gives them in different places.

Experiments:
[1] = system: Akt serine-473 phosphorylation; test: In vitro Phospho-Akt cellular assay (pAkt S473) in HEK293T/17 cells; assay type: cell-based; settings: Homo sapiens, 2 hours
Excerpt: Activation of mTOR signaling results in phosphorylation of several downstream targets. In cells, mTOR exists in two different protein complexes. The mTOR Complex-1 (mTORC1) phosphorylates and activates S6 Kinase 1 (S6K1) and S6 Kinase 2 (S6K2) (also known as p70S6K) which then phosphorylate S6 Ribosomal Protein (S6RP) (also known as RPS6)3. S6RP is phosphorylated on serine 235, serine 236, serine 240 and serine 244 by both pS6K1 and pS6K2. The mTOR Complex-2 (mTORC2) phosphorylates AKT on serine 473 which activates the AKT signaling pathway.
The assay measures a test compound's inhibition of S6RP serine-240/244 phosphorylation and inhibition of Akt serine-473 phosphorylation in human embryonic kidney derived HEK293T/17 cells (ATCC CRL-11268).
The HEK293T/17 cell line is maintained in DMEM media (Invitrogen catalogue number 41965-039) supplemented with 10% FCS at 37° C. in a 5% CO2 humidified incubator.
Cells are seeded in 96-well plates at 40,000 cells/well (pS6RP S240/244 assay) or 80,000 cells/well (pAkt S473 assay) in 90 μl growth media (DMEM, 2% FCS). Plates are incubated for 1 hour in a humidified incubator to allow the cells to adhere. Cells are treated with 8 concentrations of test compounds or DMSO alone for controls (final DMSO concentration 0.1%) and incubated at 37° C. for 2 hours. Then 20 μl of 5× concentrated lysis buffer (750 mM NaCl, 100 mM Tris pH7.4, 5 mM ADTA, 5 mM EGTA, 5% Triton X-100) is added, plates are sealed and incubated for 15 minutes at 4° C. with gentle shaking. After cell lysis, 25 μl cell lysate is transferred to a MesoScale plate coated with an antibody to pS6RP Ser240/244 (MesoScale Discovery K150DGD-3) or an antibody to pAkt Ser 473 (MesoScale Discovery K151DGD-3). Plates have been blocked before by incubation with 150 μl MesoScale Discovery Blocking Solution-A for 1 hour at room temperature followed by washing with 150 μl 1× Tris wash buffer per well. After the transfer of the cell lysate to the MSD plate, the pS6RP (or pAkt) protein is captured on the coated antibody by incubation at room temperature for 1 hour with gentle shaking. After the capture step the plate is washed three times with 150 μl of 1× Tris wash buffer per well. Then 25 μl detection antibody conjugated with a Sulfo-Tag is added and incubated for 1 hour at room temperature with gentle shaking. Subsequently the antibody solution is removed and the plate is washed 3 times with 150 μl×Tris wash buffer per well and 150 μl Read buffer is added. The plates are analysed on a MSD 2400 Plate Reader (MesoScale Discovery). Data analysis is performed using nonlinear regression for a sigmoidal dose-response with a variable slope.

[2] = biological target: T1, PI3K delta (PI3 Kd) (Homo sapiens, UniProt O00329); test: kinobeads assay, PI3K delta; assay type: binding
T1 construct: endogenous in cells; host or cells: Jurkat, clone E6-1 (ATCC TIB-152) cell lysate
T1 sequence (O00329 whole entry): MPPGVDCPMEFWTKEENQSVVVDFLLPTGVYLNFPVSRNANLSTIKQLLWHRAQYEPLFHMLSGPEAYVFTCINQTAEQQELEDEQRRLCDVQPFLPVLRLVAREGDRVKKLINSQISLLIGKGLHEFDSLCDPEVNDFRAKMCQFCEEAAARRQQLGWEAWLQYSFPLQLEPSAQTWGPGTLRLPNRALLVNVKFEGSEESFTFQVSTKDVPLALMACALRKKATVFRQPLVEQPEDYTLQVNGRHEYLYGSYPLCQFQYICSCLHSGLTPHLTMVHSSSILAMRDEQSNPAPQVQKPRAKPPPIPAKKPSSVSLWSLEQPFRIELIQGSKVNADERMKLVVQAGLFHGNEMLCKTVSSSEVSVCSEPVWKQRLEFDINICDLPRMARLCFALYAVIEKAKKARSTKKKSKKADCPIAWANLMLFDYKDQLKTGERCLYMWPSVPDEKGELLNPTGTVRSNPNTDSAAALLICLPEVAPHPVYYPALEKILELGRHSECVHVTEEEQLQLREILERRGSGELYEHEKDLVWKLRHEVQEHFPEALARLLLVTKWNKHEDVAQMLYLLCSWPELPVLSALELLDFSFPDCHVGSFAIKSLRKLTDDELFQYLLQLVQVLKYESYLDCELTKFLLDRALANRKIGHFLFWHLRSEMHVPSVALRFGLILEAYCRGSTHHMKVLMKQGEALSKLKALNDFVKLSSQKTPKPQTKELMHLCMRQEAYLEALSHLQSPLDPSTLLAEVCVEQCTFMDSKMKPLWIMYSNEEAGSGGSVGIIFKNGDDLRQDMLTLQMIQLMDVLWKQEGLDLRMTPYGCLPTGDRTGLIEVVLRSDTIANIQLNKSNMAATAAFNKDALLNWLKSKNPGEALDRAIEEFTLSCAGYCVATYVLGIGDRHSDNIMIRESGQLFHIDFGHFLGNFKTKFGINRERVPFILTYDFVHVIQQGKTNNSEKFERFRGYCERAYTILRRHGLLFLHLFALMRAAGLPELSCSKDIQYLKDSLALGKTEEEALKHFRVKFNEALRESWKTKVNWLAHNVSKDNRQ
T1 sequence (P27986 whole entry partner): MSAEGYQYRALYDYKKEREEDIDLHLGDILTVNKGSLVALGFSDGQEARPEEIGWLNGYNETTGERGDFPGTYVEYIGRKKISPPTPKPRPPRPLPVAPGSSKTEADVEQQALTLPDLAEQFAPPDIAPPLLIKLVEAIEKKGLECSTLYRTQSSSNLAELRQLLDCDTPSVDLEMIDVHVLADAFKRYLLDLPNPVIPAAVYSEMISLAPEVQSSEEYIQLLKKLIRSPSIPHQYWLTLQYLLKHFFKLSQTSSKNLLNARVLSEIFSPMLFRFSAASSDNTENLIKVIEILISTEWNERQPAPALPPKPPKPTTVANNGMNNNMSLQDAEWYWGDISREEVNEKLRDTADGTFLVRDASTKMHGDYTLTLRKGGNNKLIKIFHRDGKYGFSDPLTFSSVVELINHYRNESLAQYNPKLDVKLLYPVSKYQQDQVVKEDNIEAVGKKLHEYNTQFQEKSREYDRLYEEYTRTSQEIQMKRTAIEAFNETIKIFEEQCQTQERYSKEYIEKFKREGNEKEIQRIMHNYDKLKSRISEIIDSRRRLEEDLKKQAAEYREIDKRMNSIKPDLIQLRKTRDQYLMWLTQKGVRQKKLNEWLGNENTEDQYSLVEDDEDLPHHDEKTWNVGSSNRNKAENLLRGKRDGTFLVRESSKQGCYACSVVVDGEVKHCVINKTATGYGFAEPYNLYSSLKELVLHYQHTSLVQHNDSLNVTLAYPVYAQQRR
In short: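 IC50 values came from dose-response curves after test compound (1:3 series) competed with an immobilized phenylmorpholin-chromen affinity matrix for kinases in Jurkat lysate at 5 mg/mL protein. Eluted captured DNA-PK and PI3Kδ were measured by specific-antibody dot blot and infrared imaging. Buffer was Tris pH 7.4, NP40, MgCl2, NaCl, vanadate, DTT, NaF.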

[3] = kinobeads assay, Table 4, read-out: Inhibition values (IC50) PI3Kd
[4] = kinobeads assay, Table 6, read-out: Inhibition values (IC50) PI3Kd
[5] = Further Kinobeads Data, read-out: PI3Kd

Row | Compound | IC50 [1] | IC50 [2, 3] | IC50 [2, 4] | IC50 [2, 5]
1 | CCNC(=O)Nc1ccc(-c2nc3c(c(N4CCOC[C@@H]4C)n2)CN(C(=O)C(C)(C)C)C3)cc1 [Example 22, (S)-1-ethyl-3-(4-(4-(3-methylmorpholino)-6-pivaloyl-6,7-dihydro-5H-pyrrolo[3,4-d]pyrimidin-2-yl)phenyl)urea] | 29 nM | > 10 µM | > 10 µM | –
2 | CCNC(=O)Nc1ccc(-c2nc3c(c(N4CCOC[C@@H]4C)n2)CN(C)C3)cc1 [Example 26, (S)-1-ethyl-3-(4-(6-methyl-4-(3-methylmorpholino)-6,7-dihydro-5H-pyrrolo[3,4-d]pyrimidin-2-yl)phenyl)urea] | 68 nM | > 10 µM | > 10 µM | –
3 | CCNC(=O)Nc1ccc(-c2nc3c(c(N4CCOC[C@@H]4C)n2)CCN(CC)C3)cc1 [Example 27, (S)-1-ethyl-3-(4-(7-ethyl-4-(3-methylmorpholino)-5,6,7,8-tetrahydropyrido[3,4-d]pyrimidin-2-yl)phenyl)urea] | 16 nM | > 10 µM | > 10 µM | –
4 | CCNC(=O)N1Cc2nc(-c3ccc(NC(=O)NC4CC4)cc3)nc(N3CCOC[C@@H]3C)c2C1 [Example 33, (S)-2-(4-(3-cyclopropylureido)phenyl)-N-ethyl-4-(3-methylmorpholino)-5H-pyrrolo[3,4-d]pyrimidine-6(7H)-carboxamide] | 160 nM | > 10 µM | > 10 µM | –
5 | CCOC(=O)N1Cc2nc(-c3ccc(NC(=O)NC4CC4)cc3)nc(N3CCOC[C@@H]3C)c2C1 [Example 34, (S)-ethyl 2-(4-(3-cyclopropylureido)phenyl)-4-(3-methylmorpholino)-5H-pyrrolo[3,4-d]pyrimidine-6(7H)-carboxylate] | 21 nM | > 10 µM | > 10 µM | –
6 | CCNC(=O)Nc1ccc(-c2nc3c(c(N4CCOC[C@@H]4C)n2)CCN(C)C3)cc1 [Example 35, (S)-1-ethyl-3-(4-(7-methyl-4-(3-methylmorpholino)-5,6,7,8-tetrahydropyrido[3,4-d]pyrimidin-2-yl)phenyl)urea] | 14 nM | > 10 µM | > 10 µM | –
7 | CCNC(=O)Nc1ccc(-c2nc3c(c(N4CCOC[C@@H]4C)n2)CCN(CC2CC2)C3)cc1 [Example 37, (S)-1-(4-(7-(cyclopropylmethyl)-4-(3-methylmorpholino)-5,6,7,8-tetrahydropyrido[3,4-d]pyrimidin-2-yl)phenyl)-3-ethylurea] | 45 nM | > 10 µM | > 10 µM | –
8 | C[C@H]1COCCN1c1nc(-c2ccc(NC(=O)NC3CC3)cc2)nc2c1CCN(CC1CC1)C2 [Example 40, (S)-1-cyclopropyl-3-(4-(7-(cyclopropylmethyl)-4-(3-methylmorpholino)-5,6,7,8-tetrahydropyrido[3,4-d]pyrimidin-2-yl)phenyl)urea] | 43 nM | > 10 µM | > 10 µM | –
9 | CC(C)N1CCc2c(nc(-c3ccc(NC(=O)NC4CC4)cc3)nc2N2CCOC[C@@H]2C)C1 [Example 43, (S)-1-cyclopropyl-3-(4-(7-isopropyl-4-(3-methylmorpholino)-5,6,7,8-tetrahydropyrido[3,4-d]pyrimidin-2-yl)phenyl)urea] | 35 nM | > 10 µM | > 10 µM | –
10 | CCNC(=O)Nc1ccc(-c2nc3c(c(N4CCOC[C@@H]4C)n2)CCN(C(=O)C2CC2)C3)cc1 [Example 56, (S)-1-(4-(7-(cyclopropanecarbonyl)-4-(3-methylmorpholino)-5,6,7,8-tetrahydropyrido[3,4-d]pyrimidin-2-yl)phenyl)-3-ethylurea] | 19 nM | > 10 µM | > 10 µM | –
11 | CCNC(=O)Nc1ccc(-c2nc3c(c(N4CCOC[C@@H]4C)n2)CCN(C(=O)C(C)C)C3)cc1 [Example 57, (S)-1-ethyl-3-(4-(7-isobutyryl-4-(3-methylmorpholino)-5,6,7,8-tetrahydropyrido[3,4-d]pyrimidin-2-yl)phenyl)urea] | 14 nM | > 10 µM | > 10 µM | –
12 | COC(=O)N1Cc2nc(-c3ccc(NC(=O)NC4CC4)cc3F)nc(N3CCOC[C@@H]3C)c2C1 [Example 146, (S)-methyl 2-(4-(3-cyclopropylureido)-2-fluorophenyl)-4-(3-methylmorpholino)-5H-pyrrolo[3,4-d]pyrimidine-6(7H)-carboxylate] | 41 nM | – | – | > 10 µM
13 | CCNC(=O)Nc1ccc(-c2nc3c(c(N4CCOCC4)n2)CN(C(=O)OCC)C3)c(F)c1 [Example 151, Ethyl 2-(4-(3-ethylureido)-2-fluorophenyl)-4-morpholino-5H-pyrrolo[3,4-d]pyrimidine-6(7H)-carboxylate] | 107 nM | – | – | > 10 µM

The remaining lines, values ahead:

Row | IC50 [1] | IC50 [2, 3] | IC50 [2, 4] | IC50 [2, 5] | Compound
14 | 49 nM | – | – | 1 to 10 µM | CCNC(=O)Nc1ccc(-c2nc3c(c(N4CCOC[C@@H]4C)n2)CN(C(=O)OC)C3)c(F)c1 [Example 152, (S)-methyl 2-(4-(3-ethylureido)-2-fluorophenyl)-4-(3-methylmorpholino)-5H-pyrrolo[3,4-d]pyrimidine-6-(7H)-carboxylate]
15 | 76 nM | – | – | > 10 µM | CCOC(=O)N1Cc2nc(-c3ccc(NC(=O)NC4CC4)cc3F)nc(N3CCOCC3)c2C1 [Example 156, Ethyl 2-(4-(3-cyclopropylureido)-2-fluorophenyl)-4-morpholino-5H-pyrrolo[3,4-d]pyrimidine-6(7H)-carboxylate]
16 | 314 nM | – | – | > 10 µM | CN1Cc2nc(-c3ccc(NC(=O)NC4CC4)cc3F)nc(N3CCOCC3)c2C1 [Example 159, 1-(Cyclopropyl)-3-(3-fluoro-4-(6-methyl-4-morpholino-6,7-dihydro-5H-pyrrolo[3,4-d]pyrimidin-2-yl)phenyl)urea]
17 | 85 nM | – | – | 1 to 10 µM | CCNC(=O)Nc1ccc(-c2nc3c(c(N4CCOCC4)n2)CN(C(=O)OC)C3)c(F)c1 [Example 162, methyl 2-(4-(3-ethylureido)-2-fluorophenyl)-4-morpholino-5H-pyrrolo[3,4-d]pyrimidine-6(7H)-carboxylate]
18 | 37 nM | – | – | > 10 µM | C[C@H]1COCCN1c1nc(-c2ccc(NC(=O)NC3CC3)cc2F)nc2c1CCN(C(=O)N(C)C)C2 [Example 165, (S)-2-(4-(3-cyclopropylureido)-2-fluorophenyl)-N,N-dimethyl-4-(3-methylmorpholino)-5,6-dihydropyrido[3,4-d]pyrimidine-7(8H)-carboxamide]
19 | 54 nM | – | – | 1 to 10 µM | CCOC(=O)N1Cc2nc(-c3ccc(NC(=O)NCCF)cc3F)nc(N3CCOCC3)c2C1 [Example 170, ethyl 2-(2-fluoro-4-(3-(2-fluoroethyl)ureido)phenyl)-4-morpholino-5H-pyrrolo[3,4-d]pyrimidine-6(7H)-carboxylate]
20 | 101 nM | – | – | 1 to 10 µM | CC(C)N1Cc2nc(-c3ccc(NC(=O)NC4CC4)cc3F)nc(N3CCOC[C@@H]3C)c2C1 [Example 172, (S)-1-cyclopropyl-3-(3-fluoro-4-(6-isopropyl-4-(3-methylmorpholino)-6,7-dihydro-5H-pyrrolo[3,4-d]pyrimidin-2-yl)phenyl)urea]
21 | 49 nM | – | – | > 10 µM | COC(=O)N1Cc2nc(-c3ccc(NC(=O)NC4CC4)cc3F)nc(N3CCOCC3)c2C1 [Example 173, Methyl 2-(4-(3-cyclopropylureido)-2-fluorophenyl)-4-morpholino-5H-pyrrolo[3,4-d]pyrimidine-6(7H)-carboxylate]
22 | 54 nM | – | – | 1 to 10 µM | CCNC(=O)Nc1ccc(-c2nc3c(c(N4CCOC[C@@H]4C)n2)CCN(C(=O)N(C)C)C3)c(F)c1 [Example 176, (S)-2-(4-(3-ethylureido)-2-fluorophenyl)-N,N-dimethyl-4-(3-methylmorpholino)-5,6-dihydropyrido[3,4-d]pyrimidine-7(8H)-carboxamide]
